Laboratory results taken from ChEMBL document CHEMBL4602694, “Suppression of Drug-Resistant Non-Small-Cell Lung Cancer with Inhibitors Targeting Minichromosomal Maintenance Protein” (J Med Chem, 2020).
Calls of active or inactive are those of the source. The calls are words filed in the database; no cut-off is given here.

Key:
[1] = Toxicity in athymic nude BALB/c mouse xenografted with human NCI-H1975 cells assessed as effect on liver at 1 or 4 mg/kg, ip administered for 4 weeks; format: organism-based; details: in vivo, 672 h
[2] = target: T1, DNA replication licensing factor MCM4 (Homo sapiens) (UniProt P33991); assay: Induction of ubiquitination of MCM4 in human NCI-H1975 cells incubated for 24 hrs by immunoblot analysis (reference value: 1); format: cell-based
T1 sequence (whole entry): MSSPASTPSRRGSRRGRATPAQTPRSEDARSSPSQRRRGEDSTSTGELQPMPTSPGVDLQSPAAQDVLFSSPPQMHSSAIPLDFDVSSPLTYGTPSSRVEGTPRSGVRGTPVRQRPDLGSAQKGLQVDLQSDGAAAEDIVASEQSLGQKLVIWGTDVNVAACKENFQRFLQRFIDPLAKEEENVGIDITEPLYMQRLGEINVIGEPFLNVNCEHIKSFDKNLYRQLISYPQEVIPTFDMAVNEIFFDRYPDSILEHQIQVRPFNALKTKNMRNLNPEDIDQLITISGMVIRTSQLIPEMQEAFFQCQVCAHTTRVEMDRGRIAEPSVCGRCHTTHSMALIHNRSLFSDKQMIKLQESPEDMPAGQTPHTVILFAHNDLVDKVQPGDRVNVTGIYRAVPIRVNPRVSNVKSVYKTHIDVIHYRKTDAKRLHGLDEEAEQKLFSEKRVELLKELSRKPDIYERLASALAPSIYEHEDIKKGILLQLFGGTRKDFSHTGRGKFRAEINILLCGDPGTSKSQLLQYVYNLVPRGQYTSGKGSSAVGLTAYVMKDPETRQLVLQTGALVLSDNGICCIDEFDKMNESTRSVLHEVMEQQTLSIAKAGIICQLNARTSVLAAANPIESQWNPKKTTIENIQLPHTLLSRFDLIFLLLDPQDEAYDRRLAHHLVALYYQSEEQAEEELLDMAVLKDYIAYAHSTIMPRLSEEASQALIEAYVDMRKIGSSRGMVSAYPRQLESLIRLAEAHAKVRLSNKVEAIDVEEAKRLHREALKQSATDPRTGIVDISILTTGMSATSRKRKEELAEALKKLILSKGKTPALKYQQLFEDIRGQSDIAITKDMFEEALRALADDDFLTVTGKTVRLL

[3] = target: DNA replication licensing factor MCM7 (Homo sapiens) (UniProt P33993); assay: Induction of ubiquitination of MCM7 in human NCI-H1975 cells incubated for 72 hrs by immunoblot analysis (reference value: 1); format: cell-based
[4] = target: T2, DNA replication licensing factor MCM6 (Homo sapiens) (UniProt Q14566); assay: Induction of ubiquitination of MCM6 in human PC9 cells incubated for 24 hrs by immunoblot analysis; format: cell-based; details: PC-9
T2 sequence (whole entry): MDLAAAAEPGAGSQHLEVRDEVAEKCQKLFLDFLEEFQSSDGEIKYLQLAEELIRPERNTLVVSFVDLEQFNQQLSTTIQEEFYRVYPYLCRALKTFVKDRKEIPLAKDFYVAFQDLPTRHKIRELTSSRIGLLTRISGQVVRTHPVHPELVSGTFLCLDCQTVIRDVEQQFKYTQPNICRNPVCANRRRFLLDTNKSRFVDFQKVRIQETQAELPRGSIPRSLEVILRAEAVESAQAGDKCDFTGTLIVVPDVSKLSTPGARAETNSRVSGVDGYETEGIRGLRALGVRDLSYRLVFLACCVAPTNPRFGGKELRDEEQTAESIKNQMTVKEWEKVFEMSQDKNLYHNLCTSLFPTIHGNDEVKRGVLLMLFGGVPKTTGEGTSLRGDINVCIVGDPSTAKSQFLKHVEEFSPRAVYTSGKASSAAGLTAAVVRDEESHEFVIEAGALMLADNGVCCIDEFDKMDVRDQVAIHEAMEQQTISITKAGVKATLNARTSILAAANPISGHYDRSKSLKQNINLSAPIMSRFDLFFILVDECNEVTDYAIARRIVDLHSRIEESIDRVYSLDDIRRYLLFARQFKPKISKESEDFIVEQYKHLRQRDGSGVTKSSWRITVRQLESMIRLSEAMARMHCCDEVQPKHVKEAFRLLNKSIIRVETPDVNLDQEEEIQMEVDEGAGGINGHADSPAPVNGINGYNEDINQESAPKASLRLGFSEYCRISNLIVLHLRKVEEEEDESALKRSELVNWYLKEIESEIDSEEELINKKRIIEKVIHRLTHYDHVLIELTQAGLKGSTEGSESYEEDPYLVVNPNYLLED

[5] = target: DNA replication licensing factor MCM2 (Homo sapiens) (UniProt P49736); assay: Induction of ubiquitination of FLAG-tagged MCM2 in human NCI-H1975 cells incubated for 24 hrs by magnetic beads technique based immunoblot analysis; format: cell-based
[6] = target: DNA replication licensing factor MCM2 (Homo sapiens) (UniProt P49736); assay: Induction of ubiquitination of MCM2 in human NCI-H1975 cells incubated for 72 hrs by immunoblot analysis (reference value: 1); format: cell-based
[7] = target: DNA replication licensing factor MCM2 (Homo sapiens) (UniProt P49736); assay: Induction of ubiquitination of FLAG-tagged MCM2 in human 293T cells incubated for 4 hrs by magnetic beads technique based immunoblot analysis; format: cell-based; details: HEK-293T
NCI-H1975 = assay: Induction of apoptosis in human NCI-H1975 cells assessed as increase in cleaved PARP1 level at 140 nM incubated upto 72 hrs by immunoblotting analysis; format: functional, cell-based
[8] = target: T2, DNA replication licensing factor MCM6 (Homo sapiens); assay: Induction of ubiquitination of MCM6 in human NCI-H1975 cells incubated for 72 hrs by immunoblot analysis (reference value: 1); format: cell-based
[9] = Toxicity in athymic nude BALB/c mouse xenografted with human NCI-H1975 cells assessed as effect on kidney at 1 or 4 mg/kg, ip administered for 4 weeks; format: organism-based; details: in vivo, 672 h

Chain of DNA replication licensing factor MCM2 (Homo sapiens) (P49736 whole entry): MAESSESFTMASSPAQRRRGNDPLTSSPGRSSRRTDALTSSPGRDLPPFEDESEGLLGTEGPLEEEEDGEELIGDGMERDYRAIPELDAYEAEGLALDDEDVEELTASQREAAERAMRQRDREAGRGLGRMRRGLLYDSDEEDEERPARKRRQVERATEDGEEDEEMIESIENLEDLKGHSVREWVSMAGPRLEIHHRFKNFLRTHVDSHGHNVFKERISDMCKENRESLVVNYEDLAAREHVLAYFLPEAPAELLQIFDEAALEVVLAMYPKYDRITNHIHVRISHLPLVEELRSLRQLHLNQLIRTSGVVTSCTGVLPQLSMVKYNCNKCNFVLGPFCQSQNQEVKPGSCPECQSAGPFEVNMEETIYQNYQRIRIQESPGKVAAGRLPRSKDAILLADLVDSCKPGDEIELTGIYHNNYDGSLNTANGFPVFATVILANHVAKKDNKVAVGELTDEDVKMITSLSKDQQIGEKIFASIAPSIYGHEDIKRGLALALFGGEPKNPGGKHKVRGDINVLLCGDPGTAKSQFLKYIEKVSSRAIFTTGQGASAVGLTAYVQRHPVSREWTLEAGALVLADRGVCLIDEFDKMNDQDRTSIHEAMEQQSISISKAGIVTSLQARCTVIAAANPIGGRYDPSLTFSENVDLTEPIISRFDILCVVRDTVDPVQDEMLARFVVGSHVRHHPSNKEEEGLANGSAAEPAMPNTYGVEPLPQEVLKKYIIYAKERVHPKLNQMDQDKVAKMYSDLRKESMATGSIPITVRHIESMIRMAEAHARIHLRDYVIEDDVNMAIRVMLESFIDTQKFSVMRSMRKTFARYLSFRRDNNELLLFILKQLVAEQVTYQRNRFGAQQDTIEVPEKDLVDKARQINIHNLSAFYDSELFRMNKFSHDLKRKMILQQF
Chain of DNA replication licensing factor MCM7 (Homo sapiens) (P33993 whole entry): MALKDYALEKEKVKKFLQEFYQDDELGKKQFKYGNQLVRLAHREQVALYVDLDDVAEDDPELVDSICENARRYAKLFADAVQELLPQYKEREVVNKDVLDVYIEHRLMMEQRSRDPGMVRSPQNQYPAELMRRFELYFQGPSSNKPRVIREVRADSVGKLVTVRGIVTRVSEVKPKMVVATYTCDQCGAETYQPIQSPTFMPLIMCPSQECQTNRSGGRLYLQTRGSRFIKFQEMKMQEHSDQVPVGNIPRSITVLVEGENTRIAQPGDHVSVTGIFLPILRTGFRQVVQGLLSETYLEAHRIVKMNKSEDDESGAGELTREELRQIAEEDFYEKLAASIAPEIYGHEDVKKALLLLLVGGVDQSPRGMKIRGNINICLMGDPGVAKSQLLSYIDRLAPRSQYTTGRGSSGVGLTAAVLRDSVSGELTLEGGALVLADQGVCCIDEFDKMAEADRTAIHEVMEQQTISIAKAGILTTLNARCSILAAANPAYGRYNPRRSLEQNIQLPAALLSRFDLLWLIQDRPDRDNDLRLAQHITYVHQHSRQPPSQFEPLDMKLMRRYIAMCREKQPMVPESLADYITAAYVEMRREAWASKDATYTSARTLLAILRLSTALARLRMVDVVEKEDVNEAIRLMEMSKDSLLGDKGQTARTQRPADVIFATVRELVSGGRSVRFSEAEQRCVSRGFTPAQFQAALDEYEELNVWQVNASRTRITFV

Activity [2]: 0.4 | Activity [3]: 0.4 | Activity [4]: Active | Activity [5]: Active | Activity [6]: 0.3 | Activity [7]: Active | Activity [8]: 0.2
Compound: Cc1oc2c(c1C(=O)NCCCn1ccnc1)C(=O)c1ccccc1C2=O
Activity [1]: Non-Toxic | Activity (NCI-H1975): Active | Activity [9]: Non-Toxic
